Laboratory results as given in US10729680B2, “5-substituted 2-(morpholin-4-yl)-1,7-naphthyridines” (BAYER PHARMA AKTIENGESELLSCHAFT, priority 2016, dated 2020).

Biological target: full-length human ATR protein (ATR/ATRIP) (Homo sapiens (Human), UniProt Q13535)
Experiment: Binding Assay ATR (TR-FRET, tracer A displacement)
Settings: displacement of fluorescent tracer A from GST-ATR/ATRIP
Description: To determine of binding activity of the test compounds, full-length human ATR protein was expressed and purified together with ATRIP as described above. Furthermore, a fluorescently labelled compound (tracer A as described above) was used as a tracer molecule. Detection of the binding event of the tracer was achieved by time-resolved fluorescence energy transfer (TR-FRET). We used an anti-GST-Terbium antibody (CisBio) that binds to the GST-tag at the N-terminus of ATR-kinase. Excitation of Terbium with 337 nm light results in emission of fluorescent light with 545 nm. In case a tetrameric complex has formed (antiGST-Tb+GST-ATR+Strp2-ATRIP+tracer), part of the energy will be transferred from the Terbium to the fluorophore that itself emits light of 570 nm. Displacement of the fluorescent tracer by a test compound leads to a reduction of the TR-FRET-signal.
For the assay 50 nl of a 100-fold concentrated solution of the test compound in DMSO was pipetted into a black low volume 384 well microtiter plate (MTP, Greiner Bio-One, Frickenhausen, Germany). To prepare the ATR-working solution, ATR/ATRIP stock solution was diluted in assay buffer [50 mM HEPES (pH 7.0), 10 mM MgCl2, 1 mM DTT, 0.01% (w/v) Igepal, 0.01% (w/v) BSA] to 4.2 nM protein concentration (concentration may vary from lot to lot of protein preparation). AntiGST-Tb antibody was diluted to 4.2 nM. The ATR-working solution was incubated for 30 min at 22° C. prior to dispensing to pre-form the complex of antiGST-Tb+GST-ATR+ATRIP. Then, 3 μl of the ATR-working solution were added to the test compound and the mixture was incubated for 10 min at 22° C. to allow pre-binding of the test compounds to ATR/ATRIP. Then, 2 μl of a 100 nM solution of tracer A in assay buffer were added to the ATR-working solution. The resulting mixture was incubated for 30 min at 22° C. The measurement of the TR-FRET signal was performed in a standard HTRF-compatible MTP reader instrument (e.g. BMG Pherastar) by recording the fluorescence emissions at 545 nm and 570 nm after excitation at 337-350 nm. The ratio between emission at 570 nm divided by emission at 545 nm was calculated to give the well ratio. The experimental data (well ratios) were normalised by the following way: positive control contained ATR-working solution plus tracer A solution (=0% inhibition), the negative control contained all components except GST-ATR/ATRIP (=100% inhibition). Usually the compounds were tested on the same MTP in 11 different concentrations in the range of 20 μM to 0.1 nM (20 μM, 5.9 μM, 1.7 μM, 0.51 μM, 0.15 μM, 44 nM, 13 nM, 3.8 nM, 1.1 nM, 0.33 nM and 0.1 nM). The dilution series were prepared separately before the assay on the level of the 100 fold concentrated solutions in DMSO by serial 1:3.4 dilutions in duplicate values for each concentration. IC50 values were calculated by a 4 parameter fit using standard software (GraphPad prism or equivalent).

full-length human ATR protein (ATR/ATRIP), sequence (Q13535 other isoform, or with tags, fused parts or gaps): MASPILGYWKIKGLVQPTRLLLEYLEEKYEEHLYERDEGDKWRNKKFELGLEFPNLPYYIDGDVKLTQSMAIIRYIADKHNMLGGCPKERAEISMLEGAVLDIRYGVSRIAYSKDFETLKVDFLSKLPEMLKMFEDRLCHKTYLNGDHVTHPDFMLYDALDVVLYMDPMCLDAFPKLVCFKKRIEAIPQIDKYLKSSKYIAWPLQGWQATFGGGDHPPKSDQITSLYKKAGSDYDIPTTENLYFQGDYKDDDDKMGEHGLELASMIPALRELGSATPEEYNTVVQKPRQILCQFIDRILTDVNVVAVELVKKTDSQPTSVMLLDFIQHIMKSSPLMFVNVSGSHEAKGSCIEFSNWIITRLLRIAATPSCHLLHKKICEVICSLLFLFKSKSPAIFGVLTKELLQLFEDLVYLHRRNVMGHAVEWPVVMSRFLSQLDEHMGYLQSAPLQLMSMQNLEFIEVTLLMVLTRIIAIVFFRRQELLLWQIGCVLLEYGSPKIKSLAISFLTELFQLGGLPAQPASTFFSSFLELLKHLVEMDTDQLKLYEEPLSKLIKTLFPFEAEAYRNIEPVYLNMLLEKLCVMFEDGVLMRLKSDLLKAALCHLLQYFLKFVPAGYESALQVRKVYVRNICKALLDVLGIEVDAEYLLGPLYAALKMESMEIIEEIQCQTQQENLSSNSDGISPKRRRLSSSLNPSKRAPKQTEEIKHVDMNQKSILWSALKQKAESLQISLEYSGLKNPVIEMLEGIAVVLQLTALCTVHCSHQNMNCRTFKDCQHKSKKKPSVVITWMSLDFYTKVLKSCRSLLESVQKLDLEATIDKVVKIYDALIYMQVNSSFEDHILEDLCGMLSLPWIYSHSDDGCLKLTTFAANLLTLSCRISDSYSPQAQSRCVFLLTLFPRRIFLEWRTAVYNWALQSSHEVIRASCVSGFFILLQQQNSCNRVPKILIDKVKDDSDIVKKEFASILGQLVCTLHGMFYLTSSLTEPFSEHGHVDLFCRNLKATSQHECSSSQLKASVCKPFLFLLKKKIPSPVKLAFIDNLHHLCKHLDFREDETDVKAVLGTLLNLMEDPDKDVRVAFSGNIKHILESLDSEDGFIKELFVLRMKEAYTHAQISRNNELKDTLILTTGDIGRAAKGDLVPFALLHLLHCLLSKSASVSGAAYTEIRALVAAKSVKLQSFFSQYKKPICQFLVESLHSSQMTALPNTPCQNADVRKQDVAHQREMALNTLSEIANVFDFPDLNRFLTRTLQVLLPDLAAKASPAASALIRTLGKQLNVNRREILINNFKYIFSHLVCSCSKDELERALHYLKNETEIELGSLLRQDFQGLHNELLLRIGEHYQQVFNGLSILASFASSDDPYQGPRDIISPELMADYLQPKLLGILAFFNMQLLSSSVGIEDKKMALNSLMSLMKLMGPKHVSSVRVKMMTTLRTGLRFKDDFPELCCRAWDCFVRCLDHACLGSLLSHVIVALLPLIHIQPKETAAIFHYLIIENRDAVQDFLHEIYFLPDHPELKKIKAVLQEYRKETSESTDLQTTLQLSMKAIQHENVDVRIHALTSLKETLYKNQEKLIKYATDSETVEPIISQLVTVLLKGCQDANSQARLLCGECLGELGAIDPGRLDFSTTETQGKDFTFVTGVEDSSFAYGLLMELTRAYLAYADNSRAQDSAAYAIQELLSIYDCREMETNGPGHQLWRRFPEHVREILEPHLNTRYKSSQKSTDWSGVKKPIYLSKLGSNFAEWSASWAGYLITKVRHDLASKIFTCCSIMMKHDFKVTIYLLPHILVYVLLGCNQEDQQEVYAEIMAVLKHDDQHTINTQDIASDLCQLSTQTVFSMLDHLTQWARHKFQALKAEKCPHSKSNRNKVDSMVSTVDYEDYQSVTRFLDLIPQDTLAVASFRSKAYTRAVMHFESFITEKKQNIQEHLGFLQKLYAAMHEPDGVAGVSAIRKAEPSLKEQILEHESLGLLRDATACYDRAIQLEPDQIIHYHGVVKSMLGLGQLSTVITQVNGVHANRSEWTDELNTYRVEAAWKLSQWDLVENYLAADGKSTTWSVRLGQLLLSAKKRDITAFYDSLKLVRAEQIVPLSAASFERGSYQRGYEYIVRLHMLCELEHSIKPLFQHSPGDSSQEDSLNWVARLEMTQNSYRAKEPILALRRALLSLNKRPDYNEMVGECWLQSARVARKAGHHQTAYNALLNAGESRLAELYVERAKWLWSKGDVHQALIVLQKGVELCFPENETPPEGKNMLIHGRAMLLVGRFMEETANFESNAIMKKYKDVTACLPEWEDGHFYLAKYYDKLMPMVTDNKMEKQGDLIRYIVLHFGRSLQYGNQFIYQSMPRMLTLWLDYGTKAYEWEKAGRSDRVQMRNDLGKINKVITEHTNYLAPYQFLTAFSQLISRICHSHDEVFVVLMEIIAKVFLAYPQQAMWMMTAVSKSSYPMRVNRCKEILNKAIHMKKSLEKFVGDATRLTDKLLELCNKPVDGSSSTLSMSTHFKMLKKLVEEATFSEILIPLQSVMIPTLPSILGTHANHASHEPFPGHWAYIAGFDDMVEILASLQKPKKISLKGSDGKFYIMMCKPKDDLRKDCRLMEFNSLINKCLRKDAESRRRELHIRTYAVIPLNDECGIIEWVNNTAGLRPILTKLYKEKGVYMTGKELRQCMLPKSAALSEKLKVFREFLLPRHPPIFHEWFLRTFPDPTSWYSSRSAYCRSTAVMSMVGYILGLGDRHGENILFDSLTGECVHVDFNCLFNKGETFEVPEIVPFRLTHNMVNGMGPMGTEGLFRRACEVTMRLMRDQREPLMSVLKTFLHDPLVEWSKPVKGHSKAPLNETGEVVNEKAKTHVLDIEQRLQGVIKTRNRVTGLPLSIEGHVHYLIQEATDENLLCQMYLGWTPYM
full-length human ATR protein (ATR/ATRIP), sequence (Q8WXE1 other isoform, or with tags, fused parts or gaps partner): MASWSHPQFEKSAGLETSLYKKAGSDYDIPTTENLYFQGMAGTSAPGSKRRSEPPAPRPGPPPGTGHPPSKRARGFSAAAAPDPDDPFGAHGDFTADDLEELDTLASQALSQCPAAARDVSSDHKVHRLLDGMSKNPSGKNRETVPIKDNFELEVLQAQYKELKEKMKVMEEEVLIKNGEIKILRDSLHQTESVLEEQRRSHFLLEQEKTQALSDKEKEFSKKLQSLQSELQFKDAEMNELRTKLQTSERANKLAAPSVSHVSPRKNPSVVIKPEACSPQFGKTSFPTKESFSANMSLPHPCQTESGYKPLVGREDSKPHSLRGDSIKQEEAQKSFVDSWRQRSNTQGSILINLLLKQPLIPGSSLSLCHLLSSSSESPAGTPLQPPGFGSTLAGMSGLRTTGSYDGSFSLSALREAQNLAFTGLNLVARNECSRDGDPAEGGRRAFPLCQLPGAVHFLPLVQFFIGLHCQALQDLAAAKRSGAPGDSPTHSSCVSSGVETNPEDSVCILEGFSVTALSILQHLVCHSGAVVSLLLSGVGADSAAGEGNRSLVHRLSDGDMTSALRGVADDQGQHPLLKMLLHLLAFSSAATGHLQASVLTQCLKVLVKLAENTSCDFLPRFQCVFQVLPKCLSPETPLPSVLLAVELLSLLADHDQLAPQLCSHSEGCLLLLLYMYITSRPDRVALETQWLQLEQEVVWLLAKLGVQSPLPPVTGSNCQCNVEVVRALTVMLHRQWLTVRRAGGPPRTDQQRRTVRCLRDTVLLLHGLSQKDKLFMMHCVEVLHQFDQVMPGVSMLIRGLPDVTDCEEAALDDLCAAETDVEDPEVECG

SMILES	IC50 [µM]
COc1cncc(-c2cc(N3CCOC[C@H]3C)nc3c(-c4ccn[nH]4)ncc(C)c23)c1 [Example 59, 4-(5-methoxypyridin-3-yl)-5-methyl-2-[(3R)-3-methylmorpholin-4-yl]-8-(1H-pyrazol-5-yl)-1,7-naphthyridine]	0.0426
Cc1cnc(-c2ccn[nH]2)c2nc(N3CCOC[C@H]3C)cc(-c3ccc(C(=O)N4CCCC4)cc3)c12 [Example 53, (4-{5-methyl-2-[(3R)-3-methylmorpholin-4-yl]-8-(1H-pyrazol-5-yl)-1,7-naphthyridin-4-yl}phenyl)(pyrrolidin-1-yl)methanone]	0.0273
Cc1cnc(-c2ccn[nH]2)c2nc(N3CCOC[C@H]3C)cc(C3=CCCC3)c12 [Example 33, 4-(cyclopent-1-en-1-yl)-5-methyl-2-[(3R)-3-methylmorpholin-4-yl]-8-(1H-pyrazol-5-yl)-1,7-naphthyridine]	0.0265
Cc1cnccc1-c1cc(N2CCOC[C@H]2C)nc2c(-c3ccn[nH]3)ncc(C)c12 [Example 46, 5-methyl-2-[(3R)-3-methylmorpholin-4-yl]-4-(3-methylpyridin-4-yl)-8-(1H-pyrazol-5-yl)-1,7-naphthyridine]	0.00778
Cc1cnc(-c2ccn[nH]2)c2nc(N3CCOC[C@H]3C)cc(-c3ccc(C(=O)NC4CC4)cc3)c12 [Example 63, N-cyclopropyl-4-{5-methyl-2-[(3R)-3-methylmorpholin-4-yl]-8-(1H-pyrazol-5-yl)-1,7-naphthyridin-4-yl}benzamide]	0.00787
Cc1cnc(-c2ccn[nH]2)c2nc(N3CCOC[C@H]3C)cc(-c3cccc(S(C)(=O)=O)c3)c12 [Example 41, 5-methyl-2-[(3R)-3-methylmorpholin-4-yl]-4-[3-(methylsulfonyl)phenyl]-8-(1H-pyrazol-5-yl)-1,7-naphthyridine]	0.0249
Cc1cc(-c2cc(N3CCOC[C@H]3C)nc3c(-c4ccn[nH]4)ncc(C)c23)ccc1Cl [Example 36, 4-(4-chloro-3-methylphenyl)-5-methyl-2-[(3R)-3-methylmorpholin-4-yl]-8-(1H-pyrazol-5-yl)-1,7-naphthyridine]	0.456
Cc1cnc(-c2ccn[nH]2)c2nc(N3CCOC[C@H]3C)cc(-c3ccccc3)c12 [Example 20, 5-methyl-2-[(3R)-3-methylmorpholin-4-yl]-4-phenyl-8-(1H-pyrazol-5-yl)-1,7-naphthyridine]	0.0244
Cc1cnc(-c2ccn[nH]2)c2nc(N3CCOC[C@H]3C)cc(-c3ccc4c(ccn4C)c3)c12 [Example 57, 5-methyl-4-(1-methyl-1H-indol-5-yl)-2-[(3R)-3-methylmorpholin-4-yl]-8-(1H-pyrazol-5-yl)-1,7-naphthyridine]	0.05
COc1cccc(-c2cc(N3CCOC[C@H]3C)nc3c(-c4ccn[nH]4)ncc(C)c23)c1F [Example 30, 4-(2-fluoro-3-methoxyphenyl)-5-methyl-2-[(3R)-3-methylmorpholin-4-yl]-8-(1H-pyrazol-5-yl)-1,7-naphthyridine]	0.0175
Cc1cnc(-c2ccn[nH]2)c2nc(N3CCOC[C@H]3C)cc(P(C)(=O)OCC(C)C)c12 (stereo partly drawn) [Example 19, 2-methylpropyl methyl{5-methyl-2-[(3R)-3-methylmorpholin-4-yl]-8-(1H-pyrazol-5-yl)-1,7-naphthyridin-4-yl}phosphinate]	0.0349
COc1cc(Cl)ccc1-c1cc(N2CCOC[C@H]2C)nc2c(-c3ccn[nH]3)ncc(C)c12 [Example 38, 4-(4-chloro-2-methoxyphenyl)-5-methyl-2-[(3R)-3-methylmorpholin-4-yl]-8-(1H-pyrazol-5-yl)-1,7-naphthyridine]	0.0479
Cc1cnc(-c2ccn[nH]2)c2nc(N3CCOC[C@H]3C)cc(-c3ccc(C(=O)N(C)C)cc3)c12 [Example 35, N,N-dimethyl-4-{5-methyl-2-[(3R)-3-methylmorpholin-4-yl]-8-(1H-pyrazol-5-yl)-1,7-naphthyridin-4-yl}benzamide]	0.0288
Cc1cnc(-c2ccn[nH]2)c2nc(N3CCOC[C@H]3C)cc(-c3ccc([S+](C)[O-])cc3)c12 (stereo partly drawn) [Example 29, 5-methyl-2-[(3R)-3-methylmorpholin-4-yl]-4-[4-(methylsulfinyl)phenyl]-8-(1H-pyrazol-5-yl)-1,7-naphthyridine]	0.0291
CSc1ccc(-c2cc(N3CCOC[C@H]3C)nc3c(-c4ccn[nH]4)ncc(C)c23)cc1 [Example 39, 5-methyl-2-[(3R)-3-methylmorpholin-4-yl]-4-[4-(methylsulfanyl)phenyl]-8-(1H-pyrazol-5-yl)-1,7-naphthyridine]	0.0319
Cc1cnc(-c2ccn[nH]2)c2nc(N3CCOC[C@H]3C)cc(-c3cc(F)cc(F)c3F)c12 [Example 26, 5-methyl-2-[(3R)-3-methylmorpholin-4-yl]-8-(1H-pyrazol-5-yl)-4-(2,3,5-trifluorophenyl)-1,7-naphthyridine]	0.0112
Cc1cnc(-c2ccn[nH]2)c2nc(N3CCOC[C@H]3C)cc(-c3cccc(N(C)C)c3)c12 [Example 40, N,N-dimethyl-3-{5-methyl-2-[(3R)-3-methylmorpholin-4-yl]-8-(1H-pyrazol-5-yl)-1,7-naphthyridin-4-yl}aniline]	0.0343
Cc1cnc(-c2ccn[nH]2)c2nc(N3CCOC[C@H]3C)cc(-c3ccc(CO)s3)c12 [Example 47, (5-{5-methyl-2-[(3R)-3-methylmorpholin-4-yl]-8-(1H-pyrazol-5-yl)-1,7-naphthyridin-4-yl}thiophen-2-yl)methanol]	0.00409
Cc1cnc(-c2ccn[nH]2)c2nc(N3CCOC[C@H]3C)cc(-c3cccc(CO)c3)c12 [Example 23, (3-{5-methyl-2-[(3R)-3-methylmorpholin-4-yl]-8-(1H-pyrazol-5-yl)-1,7-naphthyridin-4-yl}phenyl)methanol]	0.014
COCc1ccc(-c2cc(N3CCOC[C@H]3C)nc3c(-c4ccn[nH]4)ncc(C)c23)cc1 [Example 65, 4-[4-(methoxymethyl)phenyl]-5-methyl-2-[(3R)-3-methylmorpholin-4-yl]-8-(1H-pyrazol-5-yl)-1,7-naphthyridine]	0.0123
Cc1cnc(-c2ccn[nH]2)c2nc(N3CCOC[C@H]3C)cc(-c3ccc(C(=O)NC(C)(C)C)cc3)c12 [Example 62, N-tert-butyl-4-{5-methyl-2-[(3R)-3-methylmorpholin-4-yl]-8-(1H-pyrazol-5-yl)-1,7-naphthyridin-4-yl}benzamide]	0.0182
Cc1cnc(-c2ccn[nH]2)c2nc(N3CCOC[C@H]3C)cc(-c3ccc(C#N)c(F)c3)c12 [Example 48, 2-fluoro-4-{5-methyl-2-[(3R)-3-methylmorpholin-4-yl]-8-(1H-pyrazol-5-yl)-1,7-naphthyridin-4-yl}benzonitrile]	0.0232
Cc1ccncc1-c1cc(N2CCOC[C@H]2C)nc2c(-c3ccn[nH]3)ncc(C)c12 [Example 61, 5-methyl-2-[(3R)-3-methylmorpholin-4-yl]-4-(4-methylpyridin-3-yl)-8-(1H-pyrazol-5-yl)-1,7-naphthyridine]	0.0086
Cc1cnc(-c2ccn[nH]2)c2nc(N3CCOC[C@H]3C)cc(-c3ccnc4ccccc34)c12 [Example 43, 5-methyl-2-[(3R)-3-methylmorpholin-4-yl]-8-(1H-pyrazol-5-yl)-4-(quinolin-4-yl)-1,7-naphthyridine]	0.036
Cc1cnc(-c2ccn[nH]2)c2nc(N3CCOC[C@H]3C)cc(-c3ccc(C(=O)NCc4ccccc4)cc3)c12 [Example 54, N-benzyl-4-{5-methyl-2-[(3R)-3-methylmorpholin-4-yl]-8-(1H-pyrazol-5-yl)-1,7-naphthyridin-4-yl}benzamide]	0.0346
CNC(=O)c1ccc(-c2cc(N3CCOC[C@H]3C)nc3c(-c4ccn[nH]4)ncc(C)c23)cc1 [Example 66, N-methyl-4-{5-methyl-2-[(3R)-3-methylmorpholin-4-yl]-8-(1H-pyrazol-5-yl)-1,7-naphthyridin-4-yl}benzamide]	0.0129
Cc1cnc(-c2ccn[nH]2)c2nc(N3CCOC[C@H]3C)cc(-c3ccc4cc[nH]c4c3)c12 [Example 45, 4-(1H-indol-6-yl)-5-methyl-2-[(3R)-3-methylmorpholin-4-yl]-8-(1H-pyrazol-5-yl)-1,7-naphthyridine]	0.0947
